{"source": "patent US8329706B2", "about": "“Oxazolidinone derivatives” (Actelion Pharmaceuticals Ltd., priority 2009, dated 2012)", "key": {"rat [1]": {"test_system": "rat", "conditions": "cited from earlier work"}, "rat [2]": {"test_system": "rat", "conditions": "rat model; cited from earlier work"}, "rat [3]": {"test_system": "rat", "conditions": "cited from earlier work", "remark": "listed apart in the source"}, "human orexin-1 receptor": {"target": "T1, human orexin-1 receptor (Homo sapiens, UniProt O43613)", "T1 construct": "expressed in transfected cells; host or cells: CHO cells (G418 selection)", "T1 sequence (O43613 1-425)": "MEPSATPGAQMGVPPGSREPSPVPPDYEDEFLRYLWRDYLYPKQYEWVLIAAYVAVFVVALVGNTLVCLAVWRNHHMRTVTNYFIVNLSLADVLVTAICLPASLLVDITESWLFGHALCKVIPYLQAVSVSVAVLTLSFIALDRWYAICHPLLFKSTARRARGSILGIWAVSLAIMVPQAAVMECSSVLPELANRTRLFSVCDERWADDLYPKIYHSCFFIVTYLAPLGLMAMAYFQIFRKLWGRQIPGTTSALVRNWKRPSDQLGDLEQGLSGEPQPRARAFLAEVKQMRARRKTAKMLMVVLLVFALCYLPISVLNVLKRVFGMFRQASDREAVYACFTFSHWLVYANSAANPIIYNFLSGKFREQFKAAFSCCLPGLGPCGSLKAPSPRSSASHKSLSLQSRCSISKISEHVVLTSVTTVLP", "assay": "FLIPR intracellular calcium assay, orexin receptor antagonistic activity (OX1)", "type": "cell-based", "conditions": "CHO cells expressing human orexin-1 receptor; agonist 3 nM orexin-A; normalized to on-plate reference; * geomean n = 5, *2 geomean n = 2", "method_in_brief": "(§1)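 CHO cells expressing human OX1 or OX2 receptor loaded with fluo-4 AM, then antagonist preincubated 10 min before 3 nM orexin-A. FLIPR peak calcium fluorescence compared with agonist-plus-vehicle response. IC50 normalized to an on-plate reference compound.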"}, "human orexin-2 receptor": {"target": "T2, human orexin-2 receptor (Homo sapiens, UniProt O43614)", "T2 construct": "expressed in transfected cells; host or cells: CHO cells (G418 selection)", "T2 sequence (O43614 1-444)": "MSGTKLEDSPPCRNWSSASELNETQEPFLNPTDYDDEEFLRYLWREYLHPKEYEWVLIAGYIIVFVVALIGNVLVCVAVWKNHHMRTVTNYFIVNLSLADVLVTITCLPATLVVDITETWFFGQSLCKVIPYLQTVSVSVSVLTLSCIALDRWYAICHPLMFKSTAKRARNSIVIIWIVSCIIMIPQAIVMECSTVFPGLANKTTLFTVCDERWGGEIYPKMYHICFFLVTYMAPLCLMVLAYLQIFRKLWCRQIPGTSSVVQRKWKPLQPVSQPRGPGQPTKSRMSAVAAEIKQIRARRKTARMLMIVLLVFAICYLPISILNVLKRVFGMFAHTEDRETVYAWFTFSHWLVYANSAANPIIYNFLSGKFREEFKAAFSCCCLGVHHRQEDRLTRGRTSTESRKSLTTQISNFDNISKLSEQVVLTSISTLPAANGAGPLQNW", "assay": "FLIPR intracellular calcium assay, orexin receptor antagonistic activity (OX2)", "type": "cell-based", "conditions": "CHO cells expressing human orexin-2 receptor; agonist 3 nM orexin-A; normalized to on-plate reference; * geomean n = 5, *2 geomean n = 2", "method_in_brief": "as §1"}}}
{"molecule": "CNC(=O)[C@@H](c1ccccc1)N1CCc2cc(OC)c(OC)cc2[C@@H]1CCc1ccc(C(F)(F)F)cc1", "note": "[(2R)-2-{(1S)-6,7-dimethoxy-1-[2-(4-trifluoromethyl-phenyl)-ethyl]-3,4-dihydro-1H-isoquinolin-2-yl}-N-methyl-2-phenyl-acetamide]", "values": [{"measurement": "alertness (active wake and locomotion)", "setting": "rat [1]", "result": "decrease alertness"}, {"measurement": "time spent in REM and NREM sleep", "setting": "rat [1]", "result": "dose-dependently increase the time spent in both REM and NREM sleep"}, {"measurement": "memory function", "setting": "rat [2]", "result": "enhance memory function"}, {"measurement": "activity in model of post-traumatic stress disorder", "setting": "rat [3]", "result": "active"}]}
{"molecule": "COc1cccc(Cl)c1C1OC(C)(C)C(=O)N1Cc1ccc(Oc2ccccc2)cc1", "note": "(centres unmarked) [Example 85, 2-(2-Chloro-6-methoxy-phenyl)-5,5-dimethyl-3-(4-phenoxy-benzyl)-oxazolidin-4-one]", "values": [{"measurement": "IC50", "setting": "human orexin-1 receptor", "result": 204, "unit": "nM"}, {"measurement": "IC50", "setting": "human orexin-2 receptor", "result": 37, "unit": "nM"}]}
{"molecule": "COc1cccc(C(F)(F)F)c1C1OC(C)(C)C(=O)N1Cc1ccc(Oc2ccccc2)cc1", "note": "(centres unmarked) [Example 86, 2-(2-Methoxy-6-trifluoromethyl-phenyl)-5,5-dimethyl-3-(4-phenoxy-benzyl)-oxazolidin-4-one]", "values": [{"measurement": "IC50", "setting": "human orexin-1 receptor", "result": 2180, "unit": "nM"}, {"measurement": "IC50", "setting": "human orexin-2 receptor", "result": 65, "unit": "nM"}]}
{"molecule": "COc1cccc(OC)c1C1OC(C)(C)C(=O)N1Cc1ccc(-c2ccccc2)cc1", "note": "(centres unmarked) [Example 87, 3-Biphenyl-4-ylmethyl-2-(2,6-dimethoxy-phenyl)-5,5-dimethyl-oxazolidin-4-one]", "values": [{"measurement": "IC50", "setting": "human orexin-1 receptor", "result": 64, "unit": "nM"}, {"measurement": "IC50", "setting": "human orexin-2 receptor", "result": 1090, "unit": "nM"}]}
{"molecule": "COc1cccc(OC)c1C1OC(C)(C)C(=O)N1Cc1ccc(SC(F)(F)F)cc1", "note": "(centres unmarked) [Example 88, 2-(2,6-Dimethoxy-phenyl)-5,5-dimethyl-3-(4-trifluoromethylsulfanyl-benzyl)-oxazolidin-4-one]", "values": [{"measurement": "IC50", "setting": "human orexin-1 receptor", "result": 120, "unit": "nM"}, {"measurement": "IC50", "setting": "human orexin-2 receptor", "result": 298, "unit": "nM"}]}
{"molecule": "COc1cccc(OC)c1C1OC(C)(C)C(=O)N1Cc1ccc(Oc2ccccc2)nc1", "note": "(centres unmarked) [Example 89, 2-(2,6-Dimethoxy-phenyl)-5,5-dimethyl-3-(6-phenoxy-pyridin-3-ylmethyl)-oxazolidin-4-one]", "values": [{"measurement": "IC50", "setting": "human orexin-1 receptor", "result": 139, "unit": "nM"}, {"measurement": "IC50", "setting": "human orexin-2 receptor", "result": 212, "unit": "nM"}]}
{"molecule": "COc1cccc(OC)c1C1OC(C)(C)C(=O)N1Cc1ccc(Oc2ccccc2)cn1", "note": "(centres unmarked) [Example 90, 2-(2,6-Dimethoxy-phenyl)-5,5-dimethyl-3-(5-phenoxy-pyridin-2-ylmethyl)-oxazolidin-4-one]", "values": [{"measurement": "IC50", "setting": "human orexin-1 receptor", "result": 413, "unit": "nM"}, {"measurement": "IC50", "setting": "human orexin-2 receptor", "result": 236, "unit": "nM"}]}
{"molecule": "COc1cccc(OC)c1C1OC(C)(C)C(=O)N1Cc1ccc(Oc2ccccn2)cc1", "note": "(centres unmarked) [Example 91, 2-(2,6-Dimethoxy-phenyl)-5,5-dimethyl-3-[4-(pyridin-2-yloxy)-benzyl]-oxazolidin-4-one]", "values": [{"measurement": "IC50", "setting": "human orexin-1 receptor", "result": 110, "unit": "nM"}, {"measurement": "IC50", "setting": "human orexin-2 receptor", "result": 443, "unit": "nM"}]}
{"molecule": "COc1cccc(OC)c1C1OC(C)(C)C(=O)N1Cc1ccc(Oc2cnccn2)cc1", "note": "(centres unmarked) [Example 92, 2-(2,6-Dimethoxy-phenyl)-5,5-dimethyl-3-[4-(pyrazin-2-yloxy)-benzyl]-oxazolidin-4-one]", "values": [{"measurement": "IC50", "setting": "human orexin-1 receptor", "result": 1210, "unit": "nM"}, {"measurement": "IC50", "setting": "human orexin-2 receptor", "result": 3060, "unit": "nM"}]}
{"molecule": "COc1cccc(OC)c1C1OC(C)(C)C(=O)N1Cc1ccc(Oc2ccc(C)nn2)cc1", "note": "(centres unmarked) [Example 93, 2-(2,6-Dimethoxy-phenyl)-5,5-dimethyl-3-[4-(6-methyl-pyridazin-3-yloxy)-benzyl]-oxazolidin-4-one]", "values": [{"measurement": "IC50", "setting": "human orexin-1 receptor", "result": 1200, "unit": "nM"}, {"measurement": "IC50", "setting": "human orexin-2 receptor", "result": 8330, "unit": "nM"}]}
{"molecule": "COc1cccc(OC)c1C1OC(C)(C)C(=O)N1Cc1ccc(Oc2ncccn2)cc1", "note": "(centres unmarked) [Example 95, 2-(2,6-Dimethoxy-phenyl)-5,5-dimethyl-3-[4-(pyrimidin-2-yloxy)-benzyl]-oxazolidin-4-one]", "values": [{"measurement": "IC50", "setting": "human orexin-1 receptor", "result": 2990, "unit": "nM"}, {"measurement": "IC50", "setting": "human orexin-2 receptor", "result": 7260, "unit": "nM"}]}
{"molecule": "COc1cccc(OC(C)C)c1C1OC(C)(C)C(=O)N1Cc1ccc(Oc2ccccc2)cc1", "note": "(centres unmarked) [Example 96, 2-(2-Isopropoxy-6-methoxy-phenyl)-5,5-dimethyl-3-(4-phenoxy-benzyl)-oxazolidin-4-one]", "values": [{"measurement": "IC50", "setting": "human orexin-1 receptor", "result": 10, "unit": "nM"}, {"measurement": "IC50", "setting": "human orexin-2 receptor", "result": 120, "unit": "nM"}]}
{"molecule": "CCOc1cccc(OC)c1C1OC(C)(C)C(=O)N1Cc1ccc(Oc2ccccc2)cc1", "note": "(centres unmarked) [Example 97, 2-(2-Ethoxy-6-methoxy-phenyl)-5,5-dimethyl-3-(4-phenoxy-benzyl)-oxazolidin-4-one]", "values": [{"measurement": "IC50", "setting": "human orexin-1 receptor", "result": 25, "unit": "nM"}, {"measurement": "IC50", "setting": "human orexin-2 receptor", "result": 62, "unit": "nM"}]}
{"molecule": "COCCOc1cccc(OC)c1C1OC(C)(C)C(=O)N1Cc1ccc(Oc2ccccc2)cc1", "note": "(centres unmarked) [Example 98, 2-[2-Methoxy-6-(2-methoxy-ethoxy)-phenyl]-5,5-dimethyl-3-(4-phenoxy-benzyl)-oxazolidin-4-one]", "values": [{"measurement": "IC50", "setting": "human orexin-1 receptor", "result": 345, "unit": "nM"}, {"measurement": "IC50", "setting": "human orexin-2 receptor", "result": 366, "unit": "nM"}]}
{"molecule": "COc1cccc(OCCCO)c1C1OC(C)(C)C(=O)N1Cc1ccc(Oc2ccccc2)cc1", "note": "(centres unmarked) [Example 99, 2-[2-(3-Hydroxy-propoxy)-6-methoxy-phenyl]-5,5-dimethyl-3-(4-phenoxy-benzyl)-oxazolidin-4-one]", "values": [{"measurement": "IC50", "setting": "human orexin-1 receptor", "result": 80, "unit": "nM"}, {"measurement": "IC50", "setting": "human orexin-2 receptor", "result": 150, "unit": "nM"}]}
